# Experimental data taken from publication PMC11428215, “Unveiling a New Antimicrobial Peptide with Efficacy against P. aeruginosa and K. pneumoniae from Mangrove-Derived Paenibacillus thiaminolyticus NNS5-6 and Genomic Analysis” (Antibiotics, 2024).
# Columns and labels:
# [1] = tested on: P. aeruginosa TISTR 357; assay: Compatibility with surfactants, residual antibacterial activity; type: physicochemical, Pseudomonas aeruginosa; settings: no AMP (same value in 1 h, 6 h and 12 h), agar well diffusion, % of non-treated AMP, mean ± SD, n = 3
# Procedure: The AMP was dissolved in sterile purified water and adjusted a final concentration to 16 µg/mL. The sensitivity of the AMP to temperatures of 37, 40, 50, 60, 80, and 100 °C, as well as autoclaving at 121 °C for 15 and 30 min was evaluated. The sensitivity of the AMP to proteolytic enzymes with different digesting characteristics was studied by incubating with a concentration of 1 mg/mL of proteinase K, trypsin, and α-chymotrypsin (Sigma-Aldrich, Warren, MI, USA). The compatibility of the AMP with surfactants was evaluated by exposing the AMP to 1% SDS or 1% Triton X-100 (AppliChem GmbH, Darmstadt, Germany). The degradation of the AMP under various pH conditions, including physiological and extended alkaline conditions, was evaluated by adjusting the pH of the solution to 1.2, 4.5, 6.8, 7.4, 8.0, 10.0, 12.0, and 14.0. After incubation, the pH of the AMP solution was neutralized to the original pH before being assessed for antibacterial activity. The antibacterial assay against P. aeruginosa TISTR 357 was conducted using the agar well diffusion assay in triplicate. The stability profiles are presented as the percentage of the residual activity compared with the non-treatment conditions (mean ± SD), and statistical significance was determined by the Student’s t-test at a p-value < 0.05.
# [2] = tested on: MRSA Strain 2468; assay: Agar well diffusion, antibacterial spectrum; type: cell-based, methicillin-resistant Staphylococcus aureus
# Procedure: (§1) The active isolates from the agar overlay assay were transferred into broth media identical to that used during the initial isolation. The cultures were incubated at 30 °C with shaking at 150 rpm for 18 h. The optical density of the starter culture was adjusted to a turbidity of 0.1 OD at 625 nm using a 0.85% sterile NaCl solution before transferring 1 mL of the culture into 49 mL of fresh broth. The inoculum was then incubated at 30 °C with shaking at 150 rpm for 24 h. The CFS was obtained by centrifugation at 10,000× g at 4 °C for 15 min and filtered through a 0.2 µm sterile cellulose acetate syringe filter. The antibacterial activity of the CFS derived from each isolate was investigated using P. aeruginosa TISTR 357, K. pneumoniae TISTR 1383, E. coli TISTR 887, S. typhimurium TISTR 1469, V. parahaemolyticus TISTR 1596, and S. aureus TISTR 517 from the Thailand Institute of Scientific and Technological Research (TISTR), Thailand. The antibiotic-resistant strain, MRSA strain 2468, was kindly provided by the medical technology laboratory at the School of the Allied Health Sciences, Walailak University, Thailand. The microbial indicators were incubated at 37 °C for 18 h on MH agar. […] The experiment was conducted in triplicate, and the mean ± SD of the diameters of the inhibition zones was measured.
# [3] = tested on: P. aeruginosa TISTR 357; type: cell-based, Pseudomonas aeruginosa; settings: 37 °C 24 h, triplicate
# Procedure: (§2) The MIC and MBC of the purified AMP were determined using the broth microdilution method following the guidance provided by the Clinical and Laboratory Standards Institute (CLSI). P. aeruginosa TISTR 357 and K. pneumoniae TISTR 1383 were cultured on MH agar and incubated at 37 °C for 18 h. A single colony of the tested bacteria was suspended in 0.85% NaCl until the suspension turbidity reached an OD of 0.1 at 625 nm. The cells were then diluted to 5 × 10^6 CFU/mL using cation-adjusted Mueller Hinton broth (CAMHB). The diluted cell suspension of 10 µL was transferred into each well of a 96-well plate with a final volume of 100 µL per well. The AMP was added to achieve final concentrations ranging from 0.125 to 64 µg/mL. Colistin was used as the positive control, while antibiotic-free samples were used as negative controls. The 96-well plate was incubated at 37 °C for 24 h. Each strain was tested in triplicate. […] Subsequently, 100 µL of each dilution was spread on MH agar and then incubated at 37 °C for 24 h. The MBC was identified as the lowest concentration at which no bacterial colony growth was observed on the agar plate.
# [4] = tested on: E. coli TISTR 887; assay: Agar well diffusion, antibacterial spectrum; type: cell-based, Escherichia coli
# Procedure: as §1
# [5] = tested on: P. aeruginosa TISTR 357; assay: Agar well diffusion, antibacterial spectrum; type: cell-based, Pseudomonas aeruginosa
# Procedure: as §1
# [6] = tested on: S. typhimurium TISTR 1469; assay: Agar well diffusion, antibacterial spectrum; type: cell-based, Salmonella typhimurium
# Procedure: as §1
# [7] = tested on: K. pneumoniae TISTR 1383; type: cell-based, Klebsiella pneumoniae; settings: 37 °C 24 h, triplicate
# Procedure: as §2
# [8] = tested on: V. parahaemolyticus TISTR 1596; assay: Agar well diffusion, antibacterial spectrum; type: cell-based, Vibrio parahaemolyticus
# Procedure: as §1
# [9] = tested on: K. pneumoniae TISTR 1383; assay: Agar well diffusion, antibacterial spectrum; type: cell-based, Klebsiella pneumoniae
# Procedure: as §1
# [10] = tested on: S. aureus TISTR 517; assay: Agar well diffusion, antibacterial spectrum; type: cell-based, Staphylococcus aureus
# Procedure: as §1
# [11] = cited from earlier work
# Excerpt: The AMP of Paenibacillus thiaminolyticus NNS5-6 was sensitive to proteinase K and trypsin, confirming its proteinaceous nature. […] The AMP was also stable across a wide pH range (pH 4.5–10) compared with extremely acidic and alkaline environments. This information could help inform temperature conditions and buffer choices during purification and guide the formulation development of drug delivery systems for suitable administration routes.
# [12] = agar well diffusion on MH agar, 9 mm wells, 37 °C 18 h, CFS 100 µL, vancomycin 30 µg, colistin 1 µg, mean ± SD, n = 3
# [13] = plated on MH agar after microdilution
molecule,measurement,setting,value
"CCCCCCCCCCCCOS(=O)(=O)[O-].[Na+] [SDS, reference compound]","antibacterial activity of surfactant alone against P. aeruginosa TISTR 357, given as % residual activity",[1]; 1% SDS alone,121.76 ± 2.42 %
Colistin,Zone of Inhibition,[2]; [12],0.00 ± 0.00 mm
same,MIC,"[3]; broth microdilution, CAMHB",1 µg/mL
same,MBC,[3]; [13],1 µg/mL
same,Zone of Inhibition,[4]; [12],18.13 ± 0.88 mm
same,Zone of Inhibition,[5]; [12],18.05 ± 0.67 mm
same,Zone of Inhibition,[6]; [12],20.4 ± 0.89 mm
same,MIC,"[7]; broth microdilution, CAMHB",1 µg/mL
same,MBC,[7]; [13],1 µg/mL
same,Zone of Inhibition,[8]; [12],18.8 ± 0.76 mm
same,Zone of Inhibition,[9]; [12],18.81 ± 0.39 mm
same,Zone of Inhibition,[10]; [12],0.00 ± 0.00 mm
Triton X-100 [reference compound],"antibacterial activity of surfactant alone against P. aeruginosa TISTR 357, given as % residual activity",[1]; 1% Triton X-100 alone,126.83 ± 2.72 %
CN[C@H](CC(C)C)C(=O)N[C@H]1C(=O)N[C@@H](CC(N)=O)C(=O)N[C@H]2C(=O)N[C@H]3C(=O)N[C@H](C(=O)N[C@H](C(=O)O)c4cc(O)cc(O)c4-c4cc3ccc4O)[C@H](O)c3ccc(c(Cl)c3)Oc3cc2cc(c3O[C@@H]2O[C@H](CO)[C@@H](O)[C@H](O)[C@H]2O[C@H]2C[C@](C)(N)[C@H](O)[C@H](C)O2)Oc2ccc(cc2Cl)[C@H]1O [Vancomycin],zone of inhibition at 30 µg/disc,"[2]; Staphylococcus aureus, MRSA, 18 h",21.8 ± 0.78 mm
same,zone of inhibition at 30 µg/disc,"[4]; Escherichia coli, TISTR887, 18 h",0 mm
same,zone of inhibition at 30 µg/disc,"[5]; Pseudomonas aeruginosa, TISTR357, 18 h",0 mm
same,zone of inhibition at 30 µg/disc,"[6]; Salmonella enterica, 18 h",0 mm
same,zone of inhibition at 30 µg/disc,"[8]; Vibrio parahaemolyticus, TISTR1596, 18 h",0 mm
same,zone of inhibition at 30 µg/disc,"[9]; Klebsiella pneumoniae, TISTR1383, 18 h",0 mm
same,zone of inhibition at 30 µg/disc,"[10]; Staphylococcus aureus, TISTR517, 18 h",21.6 ± 0.51 mm
fusaricidin A,sensitivity to protease treatment,[11],insensitive to protease treatment
same,pH range over which antimicrobial activity is retained,[11]; fusaricidin A produced by Paenibacillus bovis sp. nov BD3526,2.0 to 9.0
